Measured values reported in US11578072B2, “Spiro-lactam NMDA receptor modulators and uses thereof” (Aptinyx Inc., priority 2018, dated 2023).

Experiments:
[1] = IV pharmacokinetics in rats; settings: Sprague Dawley, in vivo, rat, 2 mg/kg, normal saline; for Vd: read-out: Vss
Protocol: Sprague Dawley rats were dosed intravenously using a normal saline formulation containing 2 mg/kg of the compounds identified in the below table. The table below summarizes the results of the IV pharmacokinetics.

Plasma stability (Human) = format: in vitro ADME; settings: after 60 minutes
Protocol: (§1) Plasma stability of disclosed compounds was investigated. The following table indicates the percent of compound remaining after 60 minutes.

NMDAR2A = target: T1, NMDAR2A (Homo sapiens, UniProt Q12879); experiment: NMDAR agonist assay, [3H]MK-801 binding, NMDAR2A expressing HEK cell membranes; format: biochemical; parameters: key to NMDAR2A B: log EC50: 0=−; >1×10^−9 M (e.g., −8)=+; <1×10^−9 M (e.g., −10)++; settings: 50 μM glutamate; for EC50: read-out: NMDAR2A B: log EC50 (converted)
T1 construct: expressed in transfected cells; host or cells: HEK cells (membrane extract)
T1 sequence (Q12879 23-1464, species assumed, other chains not shown): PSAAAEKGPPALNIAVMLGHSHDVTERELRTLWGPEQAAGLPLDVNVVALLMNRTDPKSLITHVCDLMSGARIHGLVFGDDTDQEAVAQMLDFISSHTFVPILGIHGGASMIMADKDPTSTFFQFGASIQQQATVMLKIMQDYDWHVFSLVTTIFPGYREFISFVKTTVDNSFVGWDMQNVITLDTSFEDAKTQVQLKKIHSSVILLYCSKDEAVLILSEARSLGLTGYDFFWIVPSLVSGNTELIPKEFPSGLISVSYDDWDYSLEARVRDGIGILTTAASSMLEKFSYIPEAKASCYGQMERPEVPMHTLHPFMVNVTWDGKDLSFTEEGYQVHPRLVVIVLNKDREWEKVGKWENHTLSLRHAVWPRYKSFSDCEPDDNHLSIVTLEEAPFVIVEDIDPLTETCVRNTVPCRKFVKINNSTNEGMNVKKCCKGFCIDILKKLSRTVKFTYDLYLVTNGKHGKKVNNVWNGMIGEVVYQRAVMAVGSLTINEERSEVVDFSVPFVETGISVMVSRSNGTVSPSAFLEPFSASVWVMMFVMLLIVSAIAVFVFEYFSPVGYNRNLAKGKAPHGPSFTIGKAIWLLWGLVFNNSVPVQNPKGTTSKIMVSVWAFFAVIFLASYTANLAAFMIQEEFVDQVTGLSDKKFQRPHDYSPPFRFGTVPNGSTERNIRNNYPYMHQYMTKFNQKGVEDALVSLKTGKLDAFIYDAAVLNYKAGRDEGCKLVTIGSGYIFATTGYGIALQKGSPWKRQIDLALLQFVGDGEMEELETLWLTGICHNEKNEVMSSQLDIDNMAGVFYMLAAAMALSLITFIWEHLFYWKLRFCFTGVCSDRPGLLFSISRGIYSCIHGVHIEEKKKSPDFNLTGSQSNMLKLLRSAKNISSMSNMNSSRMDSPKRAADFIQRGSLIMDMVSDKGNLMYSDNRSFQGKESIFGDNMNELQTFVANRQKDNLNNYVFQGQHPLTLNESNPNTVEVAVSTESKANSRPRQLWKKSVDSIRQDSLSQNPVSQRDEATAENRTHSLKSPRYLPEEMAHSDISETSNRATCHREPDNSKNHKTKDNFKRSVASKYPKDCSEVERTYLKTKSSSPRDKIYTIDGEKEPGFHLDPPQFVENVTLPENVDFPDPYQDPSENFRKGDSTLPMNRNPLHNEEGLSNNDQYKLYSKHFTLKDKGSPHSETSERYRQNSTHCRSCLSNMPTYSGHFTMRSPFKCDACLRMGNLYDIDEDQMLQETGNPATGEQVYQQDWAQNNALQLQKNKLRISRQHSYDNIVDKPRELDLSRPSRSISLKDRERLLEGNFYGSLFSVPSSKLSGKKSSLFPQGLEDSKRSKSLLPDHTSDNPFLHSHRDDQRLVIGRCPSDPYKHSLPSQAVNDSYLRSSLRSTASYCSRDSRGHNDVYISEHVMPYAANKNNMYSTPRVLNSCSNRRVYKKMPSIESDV
Protocol: (§2) Assays were conducted as described by Moskal et al., “GLYX-13: a monoclonal antibody-derived peptide that acts as an N-methyl-D-aspartate receptor modulator,” Neuropharmacology, 49, 1077-87, 2005. These studies were designed to determine if the test compounds act to facilitate NMDAR activation in NMDAR2A, NMDAR2B, NMDAR2C or NMDAR2D expressing HEK cell membranes as measured by increases in [3H]MK-801 binding.
(§3) In the assay, 300 μg of NMDAR expressing HEK cell membrane extract protein was preincubated for 15 minutes at 25° C. in the presence of saturating concentrations of glutamate (50 μM) and varying concentrations of test compound (1×10^−15M-1×10^−7M), or 1 mM glycine. Following the addition of 0.3 μCi of [3H]MK-801 (22.5 Ci/mmol), reactions were again incubated for 15 minutes at 25° C. (nonequilibrium conditions). Bound and free [3H]MK-801 were separated via rapid filtration using a Brandel apparatus.
(§4) In analyzing the data, the DPM (disintegrations per minute) of [3H]MK-801 remaining on the filter were measured for each concentration of test compound or for 1 mM glycine. The DPM values for each concentration of a ligand (N=2) were averaged. The baseline value was determined from the best fit curve of the DPM values modeled using the GraphPad program and the log(agonist) vs. response(three parameters) algorithm was then subtracted from all points in the dataset. The % maximal [3H]MK-801 binding was then calculated relative to that of 1 mM glycine: all baseline subtracted DPM values were divided by the average value for 1 mM glycine. The EC50 and % maximal activity were then obtained from the best fit curve of the % maximal [3H]MK-801 binding data modelled using the GraphPad program and the log(agonist) vs. response(three parameters) algorithm.
(§5) The tables below summarize the results for the wild type NMDAR agonists NMDAR2A, NMDAR2B, NMDAR2C, and NMDAR2D, and whether the compound is not an agonist (−), is an agonist (+), or is a strong agonist (++), where column A is based on the % maximal [3H]MK-801 binding relative to 1 mM glycine (−=0; <100%=+; and >100%=++); and column B is based on log EC50 values (0=−; >1×10^−9 M (e.g., −8)=+; and <1×10^−9 M (e.g., −10)++).

[2] = Oral pharmacokinetics in rats (plasma, brain, CSF); format: in vivo, Sprague Dawley rats; settings: rat, oral gavage, 10 mg/kg; for bioavailability / AUC(0-t) / Cmax / Tmax: Sprague Dawley, plasma
Protocol: In another experiment, Sprague Dawley rats were dosed per os (oral gavage) using a normal saline formulation containing 10 mg/kg of the compounds identified in the table below. Plasma, brain, and CSF samples were analyzed at various time points over a 24 hour period. The table below summarizes the results of the oral pharmacokinetics, where the first three values (Tmax, Cmax and AUClast) are plasma values.

NMDAR2B = target: T2, NMDAR2B (Homo sapiens, UniProt Q13224); experiment: NMDAR agonist assay, [3H]MK-801 binding, NMDAR2B expressing HEK cell membranes; format: biochemical; settings: 50 μM glutamate; for EC50: read-out: NMDAR2B B: log EC50 (converted)
T2 construct: expressed in transfected cells; host or cells: HEK cells (membrane extract)
T2 sequence (Q13224 27-1484, species assumed, other chains not shown): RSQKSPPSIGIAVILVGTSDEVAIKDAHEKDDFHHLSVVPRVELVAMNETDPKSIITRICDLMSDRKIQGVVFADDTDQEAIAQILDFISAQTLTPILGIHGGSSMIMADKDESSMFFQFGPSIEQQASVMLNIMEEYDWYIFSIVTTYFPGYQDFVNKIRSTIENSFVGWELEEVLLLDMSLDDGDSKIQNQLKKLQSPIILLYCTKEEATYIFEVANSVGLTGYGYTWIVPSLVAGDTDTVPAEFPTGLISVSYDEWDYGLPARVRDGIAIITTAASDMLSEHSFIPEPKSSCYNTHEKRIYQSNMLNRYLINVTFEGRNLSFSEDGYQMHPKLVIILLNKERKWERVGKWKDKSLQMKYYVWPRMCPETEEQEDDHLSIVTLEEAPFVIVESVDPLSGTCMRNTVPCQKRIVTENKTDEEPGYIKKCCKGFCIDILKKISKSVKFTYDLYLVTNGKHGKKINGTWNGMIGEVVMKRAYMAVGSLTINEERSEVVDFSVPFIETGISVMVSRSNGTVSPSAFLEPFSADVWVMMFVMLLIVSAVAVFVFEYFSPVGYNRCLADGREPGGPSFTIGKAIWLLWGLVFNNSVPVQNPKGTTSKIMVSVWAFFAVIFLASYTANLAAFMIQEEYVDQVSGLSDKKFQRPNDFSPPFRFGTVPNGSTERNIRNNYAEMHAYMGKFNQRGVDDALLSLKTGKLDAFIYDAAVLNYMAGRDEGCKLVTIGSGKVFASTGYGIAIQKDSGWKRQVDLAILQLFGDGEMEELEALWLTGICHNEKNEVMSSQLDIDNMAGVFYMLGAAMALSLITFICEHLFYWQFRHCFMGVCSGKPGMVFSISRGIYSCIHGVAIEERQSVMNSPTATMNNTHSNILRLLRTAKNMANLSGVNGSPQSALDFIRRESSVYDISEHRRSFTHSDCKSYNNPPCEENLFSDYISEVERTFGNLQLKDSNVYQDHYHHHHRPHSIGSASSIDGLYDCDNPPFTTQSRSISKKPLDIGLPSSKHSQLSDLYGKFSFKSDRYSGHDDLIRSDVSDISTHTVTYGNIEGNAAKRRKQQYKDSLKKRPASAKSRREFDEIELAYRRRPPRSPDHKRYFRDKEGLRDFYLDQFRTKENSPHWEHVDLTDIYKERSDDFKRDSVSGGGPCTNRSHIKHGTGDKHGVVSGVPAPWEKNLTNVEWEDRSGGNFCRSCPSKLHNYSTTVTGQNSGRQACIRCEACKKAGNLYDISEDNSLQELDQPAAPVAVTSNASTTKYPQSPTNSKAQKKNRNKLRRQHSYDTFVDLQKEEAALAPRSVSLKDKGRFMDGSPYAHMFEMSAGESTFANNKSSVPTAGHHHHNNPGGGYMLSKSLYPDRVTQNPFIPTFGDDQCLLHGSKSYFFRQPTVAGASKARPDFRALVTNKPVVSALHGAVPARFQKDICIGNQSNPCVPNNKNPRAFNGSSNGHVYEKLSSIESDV
Protocol: as §2, §3, §4, §5

Plasma stability (Rat) = format: in vitro ADME; settings: after 60 minutes
Protocol: as §1

NMDAR2D [3] = target: T3, NMDAR2D (Homo sapiens, UniProt O15399); experiment: NMDAR agonist assay, [3H]MK-801 binding, NMDAR2D expressing HEK cell membranes; format: biochemical; settings: 50 μM glutamate
T3 construct: expressed in transfected cells; host or cells: HEK cells (membrane extract)
T3 sequence (O15399 28-1336, species assumed, other chains not shown): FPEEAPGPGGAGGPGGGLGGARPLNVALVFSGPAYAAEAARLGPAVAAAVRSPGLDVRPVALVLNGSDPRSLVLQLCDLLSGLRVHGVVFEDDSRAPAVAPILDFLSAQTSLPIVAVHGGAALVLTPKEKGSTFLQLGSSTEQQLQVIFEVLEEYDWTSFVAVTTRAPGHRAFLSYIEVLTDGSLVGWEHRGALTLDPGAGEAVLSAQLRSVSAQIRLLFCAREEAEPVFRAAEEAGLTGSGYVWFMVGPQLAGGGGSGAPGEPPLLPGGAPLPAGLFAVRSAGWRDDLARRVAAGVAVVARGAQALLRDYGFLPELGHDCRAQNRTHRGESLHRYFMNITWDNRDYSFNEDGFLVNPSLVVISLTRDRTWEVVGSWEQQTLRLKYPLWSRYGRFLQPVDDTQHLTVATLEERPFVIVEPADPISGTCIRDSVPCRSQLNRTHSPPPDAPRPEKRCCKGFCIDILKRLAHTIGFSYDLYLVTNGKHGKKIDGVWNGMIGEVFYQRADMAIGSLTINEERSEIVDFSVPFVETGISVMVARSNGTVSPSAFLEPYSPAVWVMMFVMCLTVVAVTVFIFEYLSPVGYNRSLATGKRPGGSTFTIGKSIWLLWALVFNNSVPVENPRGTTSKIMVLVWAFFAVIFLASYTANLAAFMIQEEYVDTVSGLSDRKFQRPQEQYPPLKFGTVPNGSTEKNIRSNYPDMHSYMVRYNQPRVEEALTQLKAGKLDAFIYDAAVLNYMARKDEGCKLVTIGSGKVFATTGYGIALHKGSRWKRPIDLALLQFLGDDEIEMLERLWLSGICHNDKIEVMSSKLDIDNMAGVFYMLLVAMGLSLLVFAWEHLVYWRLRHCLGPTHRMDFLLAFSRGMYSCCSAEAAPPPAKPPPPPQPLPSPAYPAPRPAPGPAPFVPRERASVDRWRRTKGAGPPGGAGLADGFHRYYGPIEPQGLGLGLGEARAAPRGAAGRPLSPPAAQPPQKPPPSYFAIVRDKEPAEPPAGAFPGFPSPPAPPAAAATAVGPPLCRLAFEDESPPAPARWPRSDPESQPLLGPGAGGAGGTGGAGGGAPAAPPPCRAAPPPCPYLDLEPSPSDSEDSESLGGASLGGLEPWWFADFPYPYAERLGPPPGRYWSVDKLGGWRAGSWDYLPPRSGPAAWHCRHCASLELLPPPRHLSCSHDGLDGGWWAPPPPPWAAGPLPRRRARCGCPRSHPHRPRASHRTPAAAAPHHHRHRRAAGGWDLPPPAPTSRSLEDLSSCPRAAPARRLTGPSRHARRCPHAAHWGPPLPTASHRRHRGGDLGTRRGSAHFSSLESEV
Protocol: as §2, §3, §4, §5

NMDAR2D [4] = target: T4, NMDAR2D (Homo sapiens, UniProt O15399+Q05586); experiment: as above; format: biochemical; settings: 50 μM glutamate, read-out: NMDAR2D B: log EC50 (converted)
T4 construct: expressed in transfected cells; host or cells: HEK cells (membrane extract)
T4 sequence (O15399 28-1336, species assumed, other chains not shown): as above
Protocol: as §2, §3, §4, §5

[5] = Microsomal stability (Rat); format: in vitro ADME; settings: rat microsomes, after 60 minutes
Protocol: (§6) Microsomal stability of disclosed compounds was investigated. The following table indicates the percent of compound remaining after 60 minutes.

[6] = Microsomal stability (Human); format: in vitro ADME; settings: human microsomes, after 60 minutes
Protocol: as §6

Sprague Dawley rats = experiment: Bennett nerve injury assay (mechanical analgesia, paw withdrawal threshold); format: in vivo; settings: 150 mg/kg PO
Protocol: The Bennett model of mechanical analgesia is used to assess the analgesic effects of compounds as measured by paw withdrawal threshold. Bennett G J, Xie Y K, “A peripheral mononeuropathy in rat that produces disorders of pain sensation like those seen in man,” Pain 33:87-107, 1988. […] Vehicle animals receive the surgery and then receive vehicle rather than test compound. Animals were tested 1 hr, 24 h and 1 wk post-test compound or vehicle administration.
Male 2-3 month old Sprague Dawley rats were used. Harlan was the supplier for all studies. Rats were housed in Lucite cages with aspen wood chip bedding, maintained on a 12:12 light:dark cycle (lights on at 5 AM), and given ad libitum access to Purina lab chow (USA) and tap water throughout the study.
Rats were anesthetized using inhaled isoflurane (2.5%). Sciatic nerve chronic constriction nerve injury surgery was performed as previously described (Bennett and Xie, 1988). An incision (˜1.5 cm in length) was made with a scalpel blade dorsally through skin on the right hind limb, parallel and posterior to femur. Using a small pointed hemostat, the biceps femoris and gluteus superficialis muscles were separated. Using curved blunt forceps, the common sciatic nerve was isolated and exposed. For the mechanical analgesia studies, the whole sciatic nerve was ligated. Using hemostats/forceps and chromic gut (5-0), the nerve was loosely ligated with a square knot; 3 ligatures, 1 mm apart were placed on the nerve. […] Testing occurred approximately 2 weeks post-surgery.
During testing, rats were acclimated to the surface of a suspended wire mesh grid (1 cm×1 cm, with the wire being 0.3 cm in diameter) for 15-20 min. Starting from the smallest, each Von Frey filament was pressed perpendicularly to the plantar surface of the affected (ipsilateral) hind paw until slightly bent and then held for 6 second. If an obvious hind paw withdrawal or a flinching behavior immediately after the withdrawal of the filament was not observed, the next larger filament was used in the same manner. In case of a response, a lower filament was used. This was repeated until six responses were collected.
For all studies, animals were baselined prior to study start to test for allodynia (defined as a paw withdrawal threshold under 5). A subset of animals was tested with gabapentin (150 mg/kg, PO) to ensure at least 50% analgesia. Once it was confirmed animals were ready for study initiation, animals were balanced across groups. All study investigators were blind to treatment conditions. Animals were dosed with 0.1, 1 or 10 mg/kg of test compound via oral gavage (PO), control sets of animals were dosed with gabapentin (150 mg/kg, PO) or vehicle (0.5% Na-CMC in 0.9% sterile saline, PO). Testing occurred 1 h post-dosing with animals retested 24 hrs and 1 week post-dosing. The percent analgesia calculations for each animal were made using the following equation: % analgesia=[(log(x)−y)/((log (z)−y)]*100, where x=the paw withdrawal threshold for the drug-treated animal in grams, y=the average of the log(x) values for the vehicle treated group, and z=the paw withdrawal threshold for naïve animals in grams (historical value of 15 used). The results for Compound AD, where the percentage of analgesia is measured at 1 hour, 24 hours, and 1 week after compound administration are as follows: for 0.1 mg/kg dose: 38.7% at 1 h, 34.5% at 24 h, and 19.7% at 1 wk; for 1 mg/kg dose: 24.1% at 1 h, 26.5% at 24 h, and 13.2% at 1 wk; and for 10 mg/kg dose: 61.2% at 1 h, 45.1% at 24 h, and 39.5% at 1 wk.

SMILES: O=C(O)C(F)(F)F.O=C1NCCCC12CCNCC2 [AA, 2,9-diazaspiro[5.5]undecan-1-one]
- AUC(0-t) [1]: 1160 ng·h/mL
- Cmax [1]: 2660 ng/mL
- clearance [1]: 28.4 mL/min/kg
- half-life [1]: 2 h
- Vd [1]: 1.76 L/kg
- Plasma (Human): percent of compound remaining (Plasma stability (Human)): 97%
- NMDAR2A A: % maximal [3H]MK-801 binding relative to 1 mM glycine (NMDAR2A): − (−=0)
- NMDAR2A B: log EC50 (NMDAR2A): −
- bioavailability [2]: 18%
- AUC(0-t) [2]: 1020 ng·h/mL
- Cmax [2]: 325 ng/mL
- Tmax [2]: 2.11 h
- CSF Cmax [2]: 12 ng/mL
- Brain Cmax [2]: 0 ng/mL
- NMDAR2B A: % maximal [3H]MK-801 binding relative to 1 mM glycine (NMDAR2B): + (<100%=+)
- EC50 (NMDAR2B): < 1 nM
- Plasma (Rat): percent of compound remaining (Plasma stability (Rat)): 84%
- NMDAR2D A: % maximal [3H]MK-801 binding relative to 1 mM glycine (NMDAR2D [3]): ++ (>100%=++)
- EC50 (NMDAR2D [4]): < 1 nM
- Microsomal (Rat): percent of compound remaining [5]: 91%
- Microsomal (Human): percent of compound remaining [6]: 96%

SMILES: CC(C)(C)OC(=O)N1CCC2(CCCNC2=O)CC1 [AC, tert-butyl 1-oxo-2,9-diazaspiro[5.5]undecane-9-carboxylate]
- AUC(0-t) [1]: 845 ng·h/mL
- Cmax [1]: 5660 ng/mL
- clearance [1]: 39.5 mL/min/kg
- half-life [1]: 0.12 h
- Vd [1]: 0.31 L/kg
- Plasma (Human): percent of compound remaining (Plasma stability (Human)): 100%
- NMDAR2A A: % maximal [3H]MK-801 binding relative to 1 mM glycine (NMDAR2A): + (<100%=+)
- EC50 (NMDAR2A): > 1 nM
- bioavailability [2]: 44%
- AUC(0-t) [2]: 1860 ng·h/mL
- Cmax [2]: 3630 ng/mL
- Tmax [2]: 0.25 h
- CSF Cmax [2]: 261 ng/mL
- Brain Cmax [2]: 298 ng/mL
- NMDAR2B A: % maximal [3H]MK-801 binding relative to 1 mM glycine (NMDAR2B): + (<100%=+)
- EC50 (NMDAR2B): < 1 nM
- Plasma (Rat): percent of compound remaining (Plasma stability (Rat)): 100%
- Microsomal (Rat): percent of compound remaining [5]: 96%
- Microsomal (Human): percent of compound remaining [6]: 100%

SMILES: O=C1NCCCCC12CCNCC2 [AG, 3,8-diazaspiro[5.6]dodecan-7-one]
- NMDAR2A A: % maximal [3H]MK-801 binding relative to 1 mM glycine (NMDAR2A): + (<100%=+)
- EC50 (NMDAR2A): < 1 nM
- NMDAR2B A: % maximal [3H]MK-801 binding relative to 1 mM glycine (NMDAR2B): + (<100%=+)
- EC50 (NMDAR2B): < 1 nM

SMILES: NCC1(CC(=O)O)CCCCC1 [gabapentin, reference compound]
- % analgesia (Sprague Dawley rats; 1 week post-administration, control group of the study): under 5%
- % analgesia (Sprague Dawley rats; 1 wk, example (typical) control values): 0%
- % analgesia (Sprague Dawley rats; 1 h, example (typical) control values): 77%
- % analgesia (Sprague Dawley rats; 1 h post-administration, control group of the study): at least 50%
- % analgesia (Sprague Dawley rats; 24 h, example (typical) control values): 17%
- % analgesia (Sprague Dawley rats; 24 h post-administration, control group of the study): under 5%
